Laboratory results taken from patent US11225482B2, “Dihydropyrrolopyrimidines for the treatment and prophylaxis of hepatitis B virus infection” (Hoffmann-La Roche Inc., priority 2017, dated 2022).
pIC50: −log10 of the molar value.

Test system: HBsAg
Test: HBsAg assay (CLIA) in HepG2.2.15 cells
Assay type: cell-based, HBV
Conditions: Hepatitis B virus, HepG2.2.15, read-out: IC50 (HBsAg assay)
Description: HepG2.2.15 cells (Acs et al. Proc Natl Acad Sci USA, 84, (1987), 4641-4), a constitutively HBV-expressing cell line were cultured in DMEM+Glutamax-I medium (Invitrogen, Carlsbad, Calif., USA), supplemented with 10% fetal bovine serum (Invitrogen) and G418 (Invitrogen) at a final concentration of 200 mg/L and maintained in 5% CO2 at 37° C.
HepG2.2.15 cells were seeded in duplicate into white, 96-well plates at 1.5×10^4 cells/well. The cells were treated with a three-fold serial dilution series of the compounds in DMSO. The final DMSO concentration in all wells was 1% and DMSO was used as no drug control.
The HBsAg chemiluminescence immunoassay (CLIA) kit (Autobio Diagnostics Co., Zhengzhou, China, Catalog number: CL0310-2) was used to measure the levels of secreted HBV antigens semi-quantitatively. For the detection 50 μL/well culture supernatant was used and HBsAg was quantified using HBsAg chemiluminescence immunoassay (CLIA) kit (Autobio Diagnostics Co., Zhengzhou, China, Catalog number: CL0310-2), 50 μL of the supernatant was transferred to the CLIA assay plate and 50 μL of enzyme conjugate reagent was added into each well. The plates were sealed and gently agitated for 1 hour at room temperature. The supernatant-enzyme-mixture was discarded and wells were washed 6 times with 300 μL of PBS. The residual liquid was removed by plating the CLIA plate […] on absorbent tissue paper. 25 μL of substrates A and B were added to each well. Luminance was measured using a luminometer (Mithras LB 940 Multimode Microplate Reader) after 10 minutes incubation. Dose-response curves were generated and the IC50 value was extrapolated by using the E-WorkBook Suite (ID Business Solutions Ltd., Guildford, UK). The IC50 was defined as the compound concentration (or conditioned media log dilution) at which HBsAg secretion was reduced by 50% compared to the no drug control.

SMILES	pIC50
Cc1cnc(C(=O)N2Cc3nc(-c4ncccn4)ncc3C2C)s1 (stereo not shown) [Example 1, (5-Methyl-2-pyrimidin-2-yl-5,7-dihydropyrrolo[3,4-d]pyrimidin-6-yl)-(5-methylthiazol-2-yl)methanone]	6.15
COc1ccc(C(=O)N2Cc3nc(-c4ncccn4)ncc3C2C)s1 (stereo not shown) [Example 2, (5-Methoxy-2-thienyl)-(5-methyl-2-pyrimidin-2-yl-5,7-dihydropyrrolo[3,4-d]pyrimidin-6-yl)methanone]	6.48
CC1c2cnc(-c3ncccn3)nc2CN1C(=O)c1cc(C(F)(F)F)cs1 (stereo not shown) [Example 3, (5-Methyl-2-pyrimidin-2-yl-5,7-dihydropyrrolo[3,4-d]pyrimidin-6-yl)-[4-(trifluoromethyl)-2-thienyl]methanone]	6.26
COc1cc(F)cc(C(=O)N2Cc3nc(-c4ncccn4)ncc3C2C)c1 (stereo not shown) [Example 4, (3-Fluoro-5-methoxy-phenyl)-(5-methyl-2-pyrimidin-2-yl-5,7-dihydropyrrolo[3,4-d]pyrimidin-6-yl)methanone]	4.85
CC1c2cnc(-c3ncccn3)nc2CN1C(=O)c1cccs1 (stereo not shown) [Example 5, (5-Methyl-2-pyrimidin-2-yl-5,7-dihydropyrrolo[3,4-d]pyrimidin-6-yl)-(2-thienyl)methanone]	5.77
Cc1csc(C(=O)N2Cc3nc(-c4ncccn4)ncc3C2C)c1 (stereo not shown) [Example 6, (5-Methyl-2-pyrimidin-2-yl-5,7-dihydropyrrolo[3,4-d]pyrimidin-6-yl)-(4-methyl-2-thienyl)methanone]	5.95
CC1c2cnc(-c3ncccn3)nc2CN1C(=O)c1cc(Br)cs1 (stereo not shown) [Example 7, (4-Bromo-2-thienyl)-(5-methyl-2-pyrimidin-2-yl-5,7-dihydropyrrolo[3,4-d]pyrimidin-6-yl)methanone]	6.04
Cc1ccc(C(=O)N2Cc3nc(-c4ncccn4)ncc3C2C)s1 (stereo not shown) [Example 8, (5-Methyl-2-pyrimidin-2-yl-5,7-dihydropyrrolo[3,4-d]pyrimidin-6-yl)-(5-methyl-2-thienyl)methanone]	6.17
CC1c2cnc(-c3ncccn3)nc2CN1C(=O)c1ccc(Cl)s1 (stereo not shown) [Example 9, (5-Chloro-2-thienyl)-(5-methyl-2-pyrimidin-2-yl-5,7-dihydropyrrolo[3,4-d]pyrimidin-6-yl)methanone]	6.42
CC1c2cnc(-c3ncccn3)nc2CN1C(=O)c1cnn(C)c1 (stereo not shown) [Example 11, (1-Methylpyrazol-4-yl)-(5-methyl-2-pyrimidin-2-yl-5,7-dihydropyrrolo[3,4-d]pyrimidin-6-yl)methanone]	5.21
CC1c2cnc(-c3ncccn3)nc2CN1C(=O)c1ccn(C)n1 (stereo not shown) [Example 13, (1-Methylpyrazol-3-yl)-(5-methyl-2-pyrimidin-2-yl-5,7-dihydropyrrolo[3,4-d]pyrimidin-6-yl)methanone]	5.45
CC1c2cnc(-c3ncccn3)nc2CN1C(=O)c1nc2ccccc2[nH]1 (stereo not shown) [Example 14, 1H-Benzimidazol-2-yl-(5-methyl-2-pyrimidin-2-yl-5,7-dihydropyrrolo[3,4-d]pyrimidin-6-yl)methanone]	6.37
COc1ccc(C(=O)N2Cc3nc(-c4ncccn4)ncc3C2C)cc1 (stereo not shown) [Example 15, (4-Methoxyphenyl)-(5-methyl-2-pyrimidin-2-yl-5,7-dihydropyrrolo[3,4-d]pyrimidin-6-yl)methanone]	4.58
CCn1ccc(C(=O)N2Cc3nc(-c4ncccn4)ncc3C2C)n1 (stereo not shown) [Example 16, (1-Ethylpyrazol-3-yl)-(5-methyl-2-pyrimidin-2-yl-5,7-dihydropyrrolo[3,4-d]pyrimidin-6-yl)methanone]	5.33
CC1c2cnc(-c3ncccn3)nc2CN1C(=O)c1ccc(Br)s1 (stereo not shown) [Example 17, (5-Bromo-2-thienyl)-(5-methyl-2-pyrimidin-2-yl-5,7-dihydropyrrolo[3,4-d]pyrimidin-6-yl)methanone]	6.12
CC1c2cnc(-c3ncccn3)nc2CN1C(=O)c1ccc([N+](=O)[O-])s1 (stereo not shown) [Example 18, (5-Methyl-2-pyrimidin-2-yl-5,7-dihydropyrrolo[3,4-d]pyrimidin-6-yl)-(5-nitro-2-thienyl)methanone]	6.14
CC1c2cnc(-c3ncccn3)nc2CN1C(=O)c1ccc2ccccc2c1 (stereo not shown) [Example 19, (5-Methyl-2-pyrimidin-2-yl-5,7-dihydropyrrolo[3,4-d]pyrimidin-6-yl)-(2-naphthyl)methanone]	5.10

SMILES	pIC50
CC1c2cnc(-c3ncccn3)nc2CN1C(=O)c1cn2ccccc2n1 (stereo not shown) [Example 20, Imidazo[1,2-a]pyridin-2-yl-(5-methyl-2-pyrimidin-2-yl-5,7-dihydropyrrolo[3,4-d]pyrimidin-6-yl)methanone]	6.30
COc1cncc(C(=O)N2Cc3nc(-c4ncccn4)ncc3C2C)n1 (stereo not shown) [Example 22, (6-Methoxypyrazin-2-yl)-(5-methyl-2-pyrimidin-2-yl-5,7-dihydropyrrolo[3,4-d]pyrimidin-6-yl)methanone]	5.32
CC1c2cnc(-c3ncccn3)nc2CN1C(=O)c1n[nH]c2ccccc12 (stereo not shown) [Example 23, 1H-indazol-3-yl-(5-methyl-2-pyrimidin-2-yl-5,7-dihydropyrrolo[3,4-d]pyrimidin-6-yl)methanone]	6.63
CC1c2cnc(-c3ncccn3)nc2CN1C(=O)c1cnn2ccccc12 (stereo not shown) [Example 24, (5-Methyl-2-pyrimidin-2-yl-5,7-dihydropyrrolo[3,4-d]pyrimidin-6-yl)-pyrazolo[1,5-a]pyridin-3-yl-methanone]	6.81
CC1c2cnc(-c3ncccn3)nc2CN1C(=O)c1ccc2ncsc2c1 (stereo not shown) [Example 25, 1,3-Benzothiazol-6-yl-(5-methyl-2-pyrimidin-2-yl-5,7-dihydropyrrolo[3,4-d]pyrimidin-6-yl)methanone]	4.54
CC1c2cnc(-c3ncccn3)nc2CN1C(=O)c1cnc2ccccn12 (stereo not shown) [Example 26, Imidazo[1,2-a]pyridin-3-yl-(5-methyl-2-pyrimidin-2-yl-5,7-dihydropyrrolo[3,4-d]pyrimidin-6-yl)methanone]	6.66
CC1c2cnc(-c3ncccn3)nc2CN1C(=O)c1noc2ccccc12 (stereo not shown) [Example 27, 1,2-Benzoxazol-3-yl-(5-methyl-2-pyrimidin-2-yl-5,7-dihydropyrrolo[3,4-d]pyrimidin-6-yl)methanone]	6.21
CC1c2cnc(-c3ncccn3)nc2CN1C(=O)c1nc2ccccc2s1 (stereo not shown) [Example 28, 1,3-Benzothiazol-2-yl-(5-methyl-2-pyrimidin-2-yl-5,7-dihydropyrrolo[3,4-d]pyrimidin-6-yl)methanone]	5.75
CC1c2cnc(-c3ncccn3)nc2CN1c1cc(F)cc(F)n1 (stereo not shown) [Example 31, 6-(4,6-difluoro-2-pyridyl)-5-methyl-2-pyrimidin-2-yl-5,7-dihydropyrrolo[3,4-d]pyrimidine]	6.18
CC1c2cnc(-c3ncccn3)nc2CN1c1cc(F)nc(F)c1 (stereo not shown) [Example 32, 6-(2,6-difluoro-4-pyridyl)-5-methyl-2-pyrimidin-2-yl-5,7-dihydropyrrolo[3,4-d]pyrimidine]	5.70
COc1cc(F)nc(N2Cc3nc(-c4ccccn4)ncc3C2C)c1 (stereo not shown) [Example 33, 6-(6-Fluoro-4-methoxy-2-pyridyl)-5-methyl-2-(2-pyridyl)-5,7-dihydropyrrolo[3,4-d]pyrimidine]	6.90
CC(=O)N1CCN(c2cc(F)cc(N3Cc4nc(-c5ncccn5)ncc4C3C)n2)CC1 (stereo not shown) [Example 34, 1-[4-[4-Fluoro-6-(5-Methyl-2-Pyrimidin-2-Yl-5,7-Dihydropyrrolo[3,4-d]Pyrimidin-6-Yl)-2-Pyridyl]Piperazin-1-Yl]Ethanone]	6.44
CC1c2cnc(-c3ncccn3)nc2CN1c1cc(F)nc(N2CC3(COC3)C2)c1 (stereo not shown) [Example 35, 6-[6-Fluoro-4-(5-Methyl-2-Pyrimidin-2-Yl-5,7-Dihydropyrrolo[3,4-d]Pyrimidin-6-Yl)-2-Pyridyl]-2-Oxa-6-Azaspiro[3.3]Heptane]	6.23
CC1c2cnc(-c3ncccn3)nc2CN1c1cc(F)cc(N2CC3(COC3)C2)n1 (stereo not shown) [Example 36, 6-[4-Fluoro-6-(5-Methyl-2-Pyrimidin-2-Yl-5,7-Dihydropyrrolo[3,4-d]Pyrimidin-6-Yl)-2-Pyridyl]-2-Oxa-6-Azaspiro[3.3]Heptane]	6.06
CNc1cc(F)nc(N2Cc3nc(-c4ncccn4)ncc3C2C)c1 (stereo not shown) [Example 37, 2-Fluoro-N-methyl-6-(5-methyl-2-pyrimidin-2-yl-5,7-dihydropyrrolo[3,4-d]pyrimidin-6-yl)pyridin-4-amine]	7.26
CC1c2cnc(-c3ncccn3)nc2CN1c1cc(N(C)C)cc(F)n1 (stereo not shown) [Example 38, 2-Fluoro-N,N-dimethyl-6-(5-methyl-2-pyrimidin-2-yl-5,7-dihydropyrrolo[3,4-d]pyrimidin-6-yl)pyridin-4-amine]	7.82
CC1c2cnc(-c3ncccn3)nc2CN1c1cc(N2CCC2)cc(F)n1 (stereo not shown) [Example 39, 6-[4-(Azetidin-1-yl)-6-fluoro-2-pyridyl]-5-methyl-2-pyrimidin-2-yl-5,7-dihydropyrrolo[3,4-d]pyrimidine]	7.70
